Data taken from ChEMBL document CHEMBL3885881, “DrugMatrix”.

Species on record: Rattus norvegicus
Experiment: DrugMatrix - Regimen: Daily Repeat
Assay type: toxicity, organism-based, Sprague-Dawley
Design: regimen Daily Repeat, gender Male, age 6-8 weeks
Details: in vivo, sc, route subcutaneous, […]; for ABSOLUTE BASOPHIL / ABSOLUTE EOSINOPHIL / ABSOLUTE LYMPHOCYTE / ABSOLUTE MONOCYTE / ABSOLUTE SEGMENTED NEUTROPHIL / BASOPHIL / EOSINOPHIL / ERYTHROCYTE COUNT / HEMATOCRIT / LEUKOCYTE COUNT / MEAN CORPUSCULAR HEMOGLOBIN / MEAN CORPUSCULAR HEMOGLOBIN CONCENTRATION / MEAN CORPUSCULAR VOLUME / MONOCYTE / NEUTROPHIL / NUCLEATED RED BLOOD CELLS / PLATELET COUNT: tissue Blood; for ALANINE AMINOTRANSFERASE / ALBUMIN / ALKALINE PHOSPHATASE / ASPARTATE AMINOTRANSFERASE / BLOOD UREA NITROGEN / CHLORIDE / CHOLESTEROL / CREATINE PHOSPHOKINASE / CREATININE / GLUCOSE / LACTATE DEHYDROGENASE / LIPASE / PHOSPHORUS / POTASSIUM / TOTAL BILIRUBIN / URIC ACID: tissue Plasma
[1] = 79 mg/kg, 120 h, dose level High, time 5 day
[2] = 72 h, dose 1.3 mg/Kg, dose level Low, time 3 day
[3] = 120 h, dose 1.3 mg/Kg, dose level Low, time 5 day

Structure (SMILES): C[C@H]1C[C@H]2[C@@H]3CCC4=CC(=O)C=C[C@]4(C)[C@@]3(F)[C@@H](O)C[C@]2(C)[C@@]1(O)C(=O)CO [BETAMETHASONE]
- ABSOLUTE BASOPHIL [1]: 0 CELLS/uL
- ABSOLUTE EOSINOPHIL [1]: 0 CELLS/uL
- ABSOLUTE LYMPHOCYTE [1]: 513.67 CELLS/uL
- ABSOLUTE MONOCYTE [1]: 201.67 CELLS/uL
- ABSOLUTE SEGMENTED NEUTROPHIL [1]: 19451.33 CELLS/uL
- BASOPHIL [1]: 0%
- EOSINOPHIL [1]: 0%
- ERYTHROCYTE COUNT [1]: 5.57 x10E6/uL
- HEMATOCRIT [1]: 34.53%
- LEUKOCYTE COUNT [1]: 20.17 x10E3/uL
- MEAN CORPUSCULAR HEMOGLOBIN [1]: 23.77 pg
- MEAN CORPUSCULAR HEMOGLOBIN CONCENTRATION [1]: 38.47 G/DL
- MEAN CORPUSCULAR VOLUME [1]: 61.87 fL
- MONOCYTE [1]: 1%
- NEUTROPHIL [1]: 95%
- NUCLEATED RED BLOOD CELLS [1]: 0 /100WBC
- PLATELET COUNT [1]: 893 x10E3/uL
- ALANINE AMINOTRANSFERASE [1]: 251.67 u/L
- ALBUMIN [1]: 4.5 G/DL
- ALKALINE PHOSPHATASE [1]: 329 u/L
- ASPARTATE AMINOTRANSFERASE [1]: 307.33 u/L
- BLOOD UREA NITROGEN [1]: 21.67 mg/dL
- CHLORIDE [1]: 93.67 MEQ/L
- CHOLESTEROL [1]: 105 mg/dL
- CREATINE PHOSPHOKINASE [1]: 200.33 u/L
- CREATININE [1]: 0.3 mg/dL
- GLUCOSE [1]: 505.67 mg/dL
- LACTATE DEHYDROGENASE [1]: 602 u/L
- LIPASE [1]: 11.33 u/L
- PHOSPHORUS [1]: 11.1 mg/dL
- POTASSIUM [1]: 5.39 MEQ/L
- TOTAL BILIRUBIN [1]: 0.23 mg/dL
- URIC ACID [1]: 1 mg/dL
- ABSOLUTE BASOPHIL [2]: 0 CELLS/uL
- ABSOLUTE EOSINOPHIL [2]: 15.33 CELLS/uL
- ABSOLUTE LYMPHOCYTE [2]: 4290.33 CELLS/uL
- ABSOLUTE MONOCYTE [2]: 15.33 CELLS/uL
- ABSOLUTE SEGMENTED NEUTROPHIL [2]: 845.67 CELLS/uL
- BASOPHIL [2]: 0%
- EOSINOPHIL [2]: 0.33%
- ERYTHROCYTE COUNT [2]: 5.47 x10E6/uL
- HEMATOCRIT [2]: 33.27%
- LEUKOCYTE COUNT [2]: 5.17 x10E3/uL
- MEAN CORPUSCULAR HEMOGLOBIN [2]: 24.57 pg
- MEAN CORPUSCULAR HEMOGLOBIN CONCENTRATION [2]: 40.37 G/DL
- MEAN CORPUSCULAR VOLUME [2]: 60.9 fL
- MONOCYTE [2]: 0.33%
- NEUTROPHIL [2]: 17%
- NUCLEATED RED BLOOD CELLS [2]: 0 /100WBC
- PLATELET COUNT [2]: 1195.33 x10E3/uL
- ALANINE AMINOTRANSFERASE [2]: 49.67 u/L
- ALBUMIN [2]: 5.1 G/DL
- ALKALINE PHOSPHATASE [2]: 401.67 u/L
- ASPARTATE AMINOTRANSFERASE [2]: 97 u/L
- BLOOD UREA NITROGEN [2]: 15 mg/dL
- CHLORIDE [2]: 98.67 MEQ/L
- CHOLESTEROL [2]: 79.33 mg/dL
- CREATINE PHOSPHOKINASE [2]: 415.33 u/L
- CREATININE [2]: 0.19 mg/dL
- GLUCOSE [2]: 120 mg/dL
- LACTATE DEHYDROGENASE [2]: 165.33 u/L
- LIPASE [2]: 11 u/L
- PHOSPHORUS [2]: 11.13 mg/dL
- POTASSIUM [2]: 6.2 MEQ/L
- TOTAL BILIRUBIN [2]: 0.17 mg/dL
- URIC ACID [2]: 0.9 mg/dL
- ABSOLUTE BASOPHIL [3]: 0 CELLS/uL
- ABSOLUTE EOSINOPHIL [3]: 75.67 CELLS/uL
- ABSOLUTE LYMPHOCYTE [3]: 4789.67 CELLS/uL
- ABSOLUTE MONOCYTE [3]: 25 CELLS/uL
- ABSOLUTE SEGMENTED NEUTROPHIL [3]: 1976.33 CELLS/uL
- BASOPHIL [3]: 0%
- EOSINOPHIL [3]: 1%
- ERYTHROCYTE COUNT [3]: 6.27 x10E6/uL
- HEMATOCRIT [3]: 38.47%
- LEUKOCYTE COUNT [3]: 6.87 x10E3/uL
- MEAN CORPUSCULAR HEMOGLOBIN [3]: 24.07 pg
- MEAN CORPUSCULAR HEMOGLOBIN CONCENTRATION [3]: 39.23 G/DL
- MEAN CORPUSCULAR VOLUME [3]: 61.3 fL
- MONOCYTE [3]: 0.33%
- NEUTROPHIL [3]: 30.33%
- NUCLEATED RED BLOOD CELLS [3]: 0 /100WBC
- PLATELET COUNT [3]: 1459.67 x10E3/uL
- ALANINE AMINOTRANSFERASE [3]: 71 u/L
- ALBUMIN [3]: 5.1 G/DL
- ALKALINE PHOSPHATASE [3]: 397 u/L
- ASPARTATE AMINOTRANSFERASE [3]: 114 u/L
- BLOOD UREA NITROGEN [3]: 17.33 mg/dL
- CHLORIDE [3]: 102.67 MEQ/L
- CHOLESTEROL [3]: 70.33 mg/dL
- CREATINE PHOSPHOKINASE [3]: 195.67 u/L
- CREATININE [3]: 0.16 mg/dL
- GLUCOSE [3]: 164.67 mg/dL
- LACTATE DEHYDROGENASE [3]: 354.67 u/L
- LIPASE [3]: 9.67 u/L
- PHOSPHORUS [3]: 13.03 mg/dL
- POTASSIUM [3]: 7 MEQ/L
- TOTAL BILIRUBIN [3]: 0.2 mg/dL
- URIC ACID [3]: 1.8 mg/dL
